Results published in PMC9605497, “Potential of Epidermal Growth Factor-like Peptide from the Sea Cucumber Stichopus horrens to Increase the Growth of Human Cells: In Silico Molecular Docking Approach” (Marine Drugs, 2022).
“Also recorded” adds a separate entry of the source.

Tested on: EGF/PDGF pathway genes
Test: qPCR array of EGF/PDGF pathway genes
Format: cell-based, human
Design: key to expression class: +: Maximum expression; −: Minimum expression; unc.: Unchanged
Details: 10 nM, 4 h; for fold change: vs serum-free medium
Method: Cells were seeded at 80,000 cells per well of 24-well plates in 400 µL of complete growth medium. Cells were grown in MEM basal medium supplemented with 10% FBS and 1% antibiotic–antimycotic in a humidified incubator at 37 °C, equilibrated with 5% CO2. After 24 h of culture, the medium was removed, washed once with PBS, replaced with serum-free medium and left to culture for another 16 h. Medium was removed and replaced with corresponding treatment medium each in triplicates; 10 nM and 50 nM of Sh-EGFl-1, 10 nM and 50 nM of rhEGF were used as a positive control and serum-free medium was used as a negative control. Cells were harvested after 4 h. Medium was removed and 200 μL of Trizol reagent (Thermo Scientific, Waltham, MA, USA) was immediately added.
RNA extraction was performed according to Trizol reagent manufacturer’s protocol. An elution volume of 15 μL RNase-free water was added before the concentration and purity were determined using NanoDrop.
A total of 100 ng RNA was used initially for the cDNA synthesis reaction. The reaction was carried out according to RT^2 First Strand Kit’s protocol (Qiagen, Venlo, Netherlands). Genomic DNA was removed according to the manufacturer’s protocol prior to cDNA strand generation.
The 10 μL cDNA of human skin cells was diluted with 91 μL prior to qPCR reaction. Primer pairs of 84 genes involved in the EGF pathway, five housekeeping genes such as ribosomal protein large, P0 (RPL0), glyceraldehyde-3-phosphate-dehydrogenase (GAPDH), beta-actin (ACTB), beta-2-microglobulin (B2M) and hypoxanthine phosphoribosyltransferase 1 (HPRT1), one positive control gene for genomic DNA contamination, three reverse transcription control genes and three PCR-positive controls were included in the Qiagen PAHS-040ZA qPCR array plate (Qiagen, Venlo, Netherlands). A list of all genes analyzed in this study is available in Supplementary Materials Table S7. The mixture reaction was prepared according to the protocol and run using BioRad CFX96TM. Samples of 10 nM rhEGF and 10 nM Sh-EGFl-1 were prepared in duplicates. The following thermal profile was applied: 1 cycle at 95 °C for 10 min, 40 cycles at 95 °C for 15 s, 60 °C for 1 min, with the ramp rate from 95 °C to 60 °C was set at 1 °C every second. The data were then analyzed through Qiagen web portal. Data for serum-free medium were selected as a control group and the differences in gene expression between control and treatment groups were calculated using the 2^(−delta delta CT) method. The difference, known as fold change, was obtained from the delta delta CT values, which are the genes of interest and the average housekeeping genes, followed by the delta delta CT (delta CT (treatment group)—delta CT (control group)).

[1] = IKBKB (IKK), PLC gamma signaling
[2] = PLCG1 (PLC), PLC gamma signaling
[3] = PPP2CA (TSC2), PLC gamma signaling
[4] = RASA1 (p120GAP), MAPK signaling
[5] = RPS6KA5 (p70S6K), MAPK signaling
[6] = RPS6KA5 (p70S6K), PI3K signaling
[7] = RPS6KA5 (p70S6K), PLC gamma signaling
[8] = RPS6KB1 (p70S6K), MAPK signaling
[9] = RPS6KB1 (p70S6K), PI3K signaling
[10] = RPS6KB1 (p70S6K), PLC gamma signaling

H-NINECFSSPCENQGICQDEIDGYNCVCQPGFTGTHCESSMLNHVI-OH (disulfide) [Sh-EGFl-1, 45 amino acid EGF-like peptide from Stichopus horrens contig 498513, synthesized by Fmoc solid-phase peptide chemistry]
gene expression of individual genes, in words: relatively high expression of MAPK8, MAPK9, MAP2K7, MKK, MAPK1, ELK1 and c-JUN; also recorded: high expression of Src, Ras, Kras and Raf; also recorded: IL-2 is minimally expressed; also recorded: increased expression of the adaptor proteins Shc, Sos and Grb2
signaling pathways activated (qPCR array): phosphoinositide 3-kinase (PI3K), mitogen-activated protein kinase (MAPK), phospholipase C gamma (PLC-gamma), Janus kinase-signal transducer and activator of transcription (JAK-STAT) and Ras homologous (Rho) pathways; also recorded: PI3K–AKT–GSK3, Ras–Raf–MEK–ERK–MAPK, PLC gamma, STAT and Rho signaling pathways
gene expression profile, EGF/PDGF pathway (qPCR array heat map): upregulation of most genes involved in EGF/PDGF pathways
expression class (AKT1, PI3K signaling): +
fold change (AKT1, PI3K signaling): (0.95)
expression class (AKT3, PI3K signaling): +
fold change (AKT3, PI3K signaling): (1.11)
expression class (ATF1, MAPK signaling): +
expression class (ATF2, MAPK signaling): +
fold change (ATF2, MAPK signaling): (0.89)
expression class (CASP3, MAPK signaling): +
fold change (CASP3, MAPK signaling): (1.05)
expression class (CASP9, MAPK signaling): +
fold change (CASP9, MAPK signaling): (0.93)
expression class (CBL, MAPK signaling): −
fold change (CBL, MAPK signaling): (1.00)
expression class (CCND1, PI3K signaling): −
fold change (CCND1, PI3K signaling): (1.17)
expression class (DUSP1, MAPK signaling): +
fold change (DUSP1, MAPK signaling): (0.97)
expression class (DUSP6, MAPK signaling): +
fold change (DUSP6, MAPK signaling): (1.05)
expression class (E1F4E, PI3K signaling): +
fold change (E1F4E, PI3K signaling): (1.28)
expression class (ELK1, JAK-STAT signaling): +
fold change (ELK1, JAK-STAT signaling): (1.08)
expression class (FOS, JAK-STAT signaling): +
fold change (FOS, JAK-STAT signaling): (1.50)
expression class (GAB1, PI3K signaling): +
fold change (GAB1, PI3K signaling): (1.00)
expression class (GRB2, PI3K signaling): +
fold change (GRB2, PI3K signaling): (1.07)
expression class (GSK3A, PI3K signaling): unc.
fold change (GSK3A, PI3K signaling): (0.87)
expression class (GSK3B, PI3K signaling): +
fold change (GSK3B, PI3K signaling): (1.06)
expression class (HRAS, MAPK signaling): +
fold change (HRAS, MAPK signaling): (0.93)
expression class (IKBKB (IKK), PI3K signaling): +
fold change (IKBKB (IKK), PI3K signaling): (1.06)
expression class [1]: +
fold change [1]: (1.06)
expression class (IKBKB, MAPK signaling): +
expression class (JAK1, JAK-STAT signaling): +
fold change (JAK1, JAK-STAT signaling): (1.02)
expression class (JUN, JAK-STAT signaling): +
fold change (JUN, JAK-STAT signaling): (1.32)
expression class (MAP2K1 (MEK1), MAPK signaling): unc.
fold change (MAP2K1 (MEK1), MAPK signaling): (0.91)
expression class (MAP2K4 (MKK4), MAPK signaling): unc.
fold change (MAP2K4 (MKK4), MAPK signaling): (0.84)
expression class (MAP2K7 (MKK7), MAPK signaling): +
fold change (MAP2K7 (MKK7), MAPK signaling): (1.0)
expression class (MAP3K2 (MEKK2), MAPK signaling): +
fold change (MAP3K2 (MEKK2), MAPK signaling): (1.27)
expression class (MAPK1 (ERK2), MAPK signaling): +
fold change (MAPK1 (ERK2), MAPK signaling): (1.03)
expression class (MAPK3 (ERK1), MAPK signaling): +
fold change (MAPK3 (ERK1), MAPK signaling): (0.98)
expression class (MAPK8, MAPK signaling): +
fold change (MAPK8, MAPK signaling): (0.99)
expression class (MAPK9, MAPK signaling): unc.
fold change (MAPK9, MAPK signaling): (0.80)
expression class (MAPK10, MAPK signaling): −
fold change (MAPK10, MAPK signaling): (0.55)
expression class (MKNK1, MAPK signaling): −
fold change (MKNK1, MAPK signaling): (0.82)
expression class (NFATC3, MAPK signaling): +
fold change (NFATC3, MAPK signaling): (1.22)
expression class (NFKB, PI3K signaling): +
fold change (NFKB, PI3K signaling): (1.02)
expression class (NFKB, PLC gamma signaling): +
fold change (NFKB, PLC gamma signaling): (1.02)
expression class (P13KCA, PI3K signaling): +
fold change (P13KCA, PI3K signaling): (1.47)
expression class (PDPK1 (PDK1), PI3K signaling): unc.
fold change (PDPK1 (PDK1), PI3K signaling): (0.95)
expression class (PIK3R1, PI3K signaling): +
fold change (PIK3R1, PI3K signaling): (0.98)
expression class (PIK3R2, PI3K signaling): +
fold change (PIK3R2, PI3K signaling): (1.17)
expression class [2]: +
fold change [2]: (1.18)
expression class [3]: +
fold change [3]: (0.94)
expression class (PRKCA, PLC gamma signaling): +
fold change (PRKCA, PLC gamma signaling): (1.10)
expression class (RAP1A, MAPK signaling): +
fold change (RAP1A, MAPK signaling): (1.14)
expression class [4]: +
fold change [4]: (1.07)
expression class (RHOA, Rho signaling): +
fold change (RHOA, Rho signaling): (1.08)
expression class [5]: +
fold change [5]: (0.97)
expression class [6]: +
fold change [6]: (0.97)
expression class [7]: +
fold change [7]: (0.97)
expression class [8]: +
fold change [8]: (1.00)
expression class [9]: +
fold change [9]: (1.00)
expression class [10]: +
fold change [10]: (1.00)
expression class (SHC1, MAPK signaling): +
fold change (SHC1, MAPK signaling): (0.94)
expression class (SHC1, PI3K signaling): +
fold change (SHC1, PI3K signaling): (0.94)
expression class (SRC, JAK-STAT signaling): +
fold change (SRC, JAK-STAT signaling): (1.18)
expression class (STAT3, JAK-STAT signaling): +
fold change (STAT3, JAK-STAT signaling): (1.06)
expression class (STAT5, JAK-STAT signaling): +
fold change (STAT5, JAK-STAT signaling): (1.06)
expression class (TP53, MAPK signaling): +
fold change (TP53, MAPK signaling): (0.96)
expression class (TP53, PI3K signaling): +
fold change (TP53, PI3K signaling): (0.96)
